Measured values reported in US12122783B2, “Stable salt of 5,10-methylene-(6R)-tetrahydrofolic acid” (MERCK & CIE, priority 2013, dated 2024).
Counter-ions that a name gives are not always drawn.

Assays:
dogs = conditions: dog, in vivo, 50 mg/kg/day
[1] = Suspension equilibration stability in solvents and mixtures; type: physicochemical
Source text: • (a) Suspension equilibration of (6R)-5,10-CH2-THF hemisulfate salt as starting material at temperatures other than room temperature in a variety of solvents and mixture are summarized in Table 10: […]

Structure (SMILES): Nc1nc2c(c(=O)[nH]1)N1CN(c3ccc(C(=O)N[C@@H](CCC(=O)O)C(=O)O)cc3)C[C@H]1CN2 [(6R)-5,10-CH2-THF hemisulfate salt, 5,10-methylene-(6R)-tetrahydrofolic acid]
- Safety at highest dose-level administered (dogs): safe
- Observation (suspension equilibration) ([1]; 2-PrOH with ~2 mM L-ascorbic acid, 40 °C, 3 d): No change
- Observation (suspension equilibration) ([1]; AcOH saturated with L-ascorbic acid, 50 °C, 1 d): No change
- Observation (suspension equilibration) ([1]; AcOH saturated with L-ascorbic acid, 50 °C, 5 d): No change
- Observation (suspension equilibration) ([1]; H2O, 5 °C, 6 d): No change
- Observation (suspension equilibration) ([1]; MeCN saturated with L-ascorbic acid, 50 °C, 5 d): No change
- Observation (suspension equilibration) ([1]; MeOH/formic acid 1:1, 50 °C, 2 h): No change
- Observation (suspension equilibration) ([1]; PEG4500/EtOH 1:9 saturated with L-ascorbic acid, 50 °C, 7 d): No change
- Observation (suspension equilibration) ([1]; THF with ~2 mM L-ascorbic acid, 40 °C, 3 d): No change
- Observation (suspension equilibration) ([1]; formic acid/THF 1:3, 10-20 °C, 6 d): No change
